Consider four compounds from patent US20200270309A1, “MALEIMIDE GROUP-MODIFIED ANGIOGENESIS INHIBITOR HM-1 AND USE THEREOF” (NANJING ANJI BIOLOGICAL TECHNOLOGY CO., LTD, priority 2017, published 2020).

Structures are written as SMILES. Peptide text beside a SMILES is read from it. * marks the point of attachment. X71 = O=C1C=CC(=O)N1c1cccc(CCCCCC(=O)*)c1; X61 = O=C1C=CC(=O)N1c1cccc(CCCC(=O)*)c1; X79 = O=C1C=CC(=O)N1c1cccc(CCC(=O)*)c1; X75 = O=C1C=CC(=O)N1c1cccc(CC(=O)*)c1

For test [1], the system named is retinal vascular endothelial nuclei. The test is described as follows: Neovascularization in a rat model of premature retinopathy. It counts as in vivo, rats. The settings on record: dose 0.05 μM in the vitreous chamber from day 7 of modeling for one week; counted on day 14; oxygen-induced neonatal rats. Put shortly:
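Newborn rats kept 7 d in chamber alternating 80% and 10% O2 every 24 h (23 °C), then room air. Intravitreal injection of test agents on day 7, saline for model and control; eyes taken day 14, HE-stained 4 μm sections. Endothelial nuclei breaching retinal inner limiting membrane counted, averaged per section per eye (10 sections).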

The subject of test [2] is IL-1β production by mouse peritoneal macrophages. The test is described as follows: IL-1β production by mouse peritoneal macrophages (ELISA). It counts as cell-based. The note with it: for Inhibition rate: IL-1β production, vs model group; for IL-1β: mouse peritoneal macrophages, 48 h, ELISA. Put shortly:
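Starch-elicited (6%, i.p.) mouse peritoneal macrophages, 2×10^6 cells/mL in RPMI 1640, adhered 3 h; non-adherent cells washed off. Polypeptides added at low, medium and high concentrations, Dex as positive control; cultured 48 h, supernatant IL-1β measured.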

In a further test the test system is splenic lymphocytes. The test is described as follows: Proliferation of splenic lymphocytes in mice (ConA, MTT). The settings on record: ConA-stimulated mouse splenic lymphocytes, 48 h. Format: cell-based. Put shortly:
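Mouse splenocytes (5×10^6 cells/mL, RPMI 1640 with 10% calf serum, red cells lysed) stimulated with ConA plus varying polypeptide concentrations, with blank, ConA-only and Dex groups, 48 h at 37° C. MTT added for 4 h, formazan dissolved in DMSO, OD read at 570 nm; five replicates.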

Test [3] relates to carrageenan-induced toe swelling. Nature of the test: Carrageenan-induced toe swelling in rats. The settings on record: SD rats; for Swelling degree 1 h: 1 h after carrageenan; for Swelling degree 3 h: 3 h after carrageenan; for Swelling degree 5 h: 5 h after carrageenan; for Swelling degree 7 h: 7 h after carrageenan. Format: in vivo. Put shortly:
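Rats dosed by injection once daily for 3 d, controls given equal-volume saline. Right hind paw volume measured by water displacement to a marked joint line; swelling degree (mL) is paw volume after carrageenan inflammation minus volume before.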

A further test concerns adjuvant arthritis. The test is described as follows: Rat adjuvant arthritis (AA) animal model. It counts as in vivo, SD rats. The note with it: 4.0 mg/kg; for Clinical score: intravenous in the tail once every five days from day 10, four paws scored 0-4, max 16, mean±SD; for Joint swelling degree / Left and right paw swelling degree: intravenous in the tail once every five days from day 10, mean±SD.

As for `C[C@H](NC(=O)CNC(=O)[C@H](CCCNC(=N)N)NC(=O)Cc1cccc(N2C(=O)C=CC2=O)c1)C(=O)N[C@@H](CC(=O)O)C(=O)N[C@@H](CCCNC(=N)N)C(=O)N[C@@H](C)C(=O)NCC(=O)NCC(=O)NCC(=O)NCC(=O)N[C@@H](CCCNC(=N)N)C(=O)NCC(=O)N[C@@H](CC(=O)O)C(=O)O` [X25] (X75-RGADRAGGGGRGD-OH), in test [1], the “Nuclei count (retinal vascular endothelial nuclei, average per section per eyeball)” value amounted to 8.923 ± 1.954. In test [2] (dose 0.05 μM), this compound displayed an Inhibition rate of 20.57% and an IL-1β of 747.54 ± 18.25 pg/mL. In test [2] (dose 0.1 μM), this compound had an Inhibition rate of 24.22% and an IL-1β of 713.21 ± 19.17 pg/mL. In test [2] (dose 0.2 μM), this compound gave an Inhibition rate of 29.89% and an IL-1β of 659.86 ± 10.24 pg/mL. Further, in the test with splenic lymphocytes (polypeptide dose 0.05 μM), the “A570 nm/A630 nm” value was determined as 0.5838 ± 0.0861 and the “Inhibition rate (%)” value is 13.56%. In the test on splenic lymphocytes (polypeptide dose 0.1 μM), the “A570 nm/A630 nm” value was found to be 0.5673 ± 0.0906 and the “Inhibition rate (%)” value was 16.01%. In addition, in the test with splenic lymphocytes (polypeptide dose 0.2 μM), the “A570 nm/A630 nm” value stood at 0.4576 ± 0.1221 and the “Inhibition rate (%)” value was determined as 32.25%. In test [3] (2.0 mg/kg once a day for 3 d), the “Swelling degree 1 h” value is reported as 0.29 ± 0.17 mg, the “Swelling degree 3 h” value is recorded as 0.38 ± 0.12 mg, the “Swelling degree 5 h” value is 0.46 ± 0.18 mg and the “Swelling degree 7 h” value is recorded as 0.34 ± 0.13 mg. In test [3] (4.0 mg/kg once a day for 3 d), the “Swelling degree 1 h” value is on record as 0.27 ± 0.15 mg, the “Swelling degree 3 h” value is given as 0.36 ± 0.19 mg, the “Swelling degree 5 h” value is reported as 0.44 ± 0.18 mg and the “Swelling degree 7 h” value was found to be 0.33 ± 0.12 mg. In the test with adjuvant arthritis, the Clinical score came out at 5.72 ± 1.11; the Joint swelling degree is on record as 0.71 ± 0.16 mm; the “Left and right paw swelling degree” value is reported as 3.76 ± 0.09 mm.

`C[C@H](NC(=O)CNC(=O)[C@H](CCCNC(=N)N)NC(=O)CCc1cccc(N2C(=O)C=CC2=O)c1)C(=O)N[C@@H](CC(=O)O)C(=O)N[C@@H](CCCNC(=N)N)C(=O)N[C@@H](C)C(=O)NCC(=O)NCC(=O)NCC(=O)NCC(=O)N[C@@H](CCCNC(=N)N)C(=O)NCC(=O)N[C@@H](CC(=O)O)C(=O)O` [X26] (X79-RGADRAGGGGRGD-OH): the “Nuclei count (retinal vascular endothelial nuclei, average per section per eyeball)” value in test [1] is given as 8.343 ± 2.131. Also, in test [2] (dose 0.05 μM), the Inhibition rate amounted to 18.26% and the IL-1β is given as 769.33 ± 19.82 pg/mL. In test [2] (dose 0.1 μM), this compound yielded an Inhibition rate of 21.99% and an IL-1β of 734.20 ± 13.89 pg/mL. In test [2] (dose 0.2 μM), this compound displayed an Inhibition rate of 29.51% and an IL-1β of 663.38 ± 11.96 pg/mL. In addition, in the test on splenic lymphocytes (polypeptide dose 0.05 μM), the “A570 nm/A630 nm” value is 0.5714 ± 0.1002 and the “Inhibition rate (%)” value was found to be 15.46%. Besides, in the test with splenic lymphocytes (polypeptide dose 0.1 μM), the “A570 nm/A630 nm” value stood at 0.5365 ± 0.0543 and the “Inhibition rate (%)” value is 20.57%. In the test with splenic lymphocytes (polypeptide dose 0.2 μM), the “A570 nm/A630 nm” value turned out to be 0.4991 ± 0.0743 and the “Inhibition rate (%)” value amounted to 26.10%. For the same compound, in test [3] (2.0 mg/kg once a day for 3 d), the “Swelling degree 1 h” value turned out to be 0.28 ± 0.17 mg, the “Swelling degree 3 h” value was 0.31 ± 0.18 mg, the “Swelling degree 5 h” value stood at 0.42 ± 0.11 mg and the “Swelling degree 7 h” value was 0.39 ± 0.12 mg. Further, in test [3] (4.0 mg/kg once a day for 3 d), the “Swelling degree 1 h” value was found to be 0.25 ± 0.18 mg, the “Swelling degree 3 h” value was 0.31 ± 0.13 mg, the “Swelling degree 5 h” value amounted to 0.40 ± 0.15 mg and the “Swelling degree 7 h” value was 0.30 ± 0.16 mg. In the test on adjuvant arthritis, the Clinical score is 5.65 ± 1.07; the Joint swelling degree turned out to be 0.74 ± 0.18 mm; the “Left and right paw swelling degree” value is listed as 3.81 ± 0.59 mm.

On to `C[C@H](NC(=O)CNC(=O)[C@H](CCCNC(=N)N)NC(=O)CCCc1cccc(N2C(=O)C=CC2=O)c1)C(=O)N[C@@H](CC(=O)O)C(=O)N[C@@H](CCCNC(=N)N)C(=O)N[C@@H](C)C(=O)NCC(=O)NCC(=O)NCC(=O)NCC(=O)N[C@@H](CCCNC(=N)N)C(=O)NCC(=O)N[C@@H](CC(=O)O)C(=O)O` [X27] (X61-RGADRAGGGGRGD-OH), for which, in test [1], the “Nuclei count (retinal vascular endothelial nuclei, average per section per eyeball)” value amounted to 8.358 ± 1.328. In test [2] (dose 0.05 μM), the Inhibition rate is 25.91% and the IL-1β is 697.32 ± 17.18 pg/mL. For the same compound, in test [2] (dose 0.1 μM), the Inhibition rate came out at 30.97% and the IL-1β amounted to 649.68 ± 18.74 pg/mL. In test [2] (dose 0.2 μM), the Inhibition rate turned out to be 33.62% and the IL-1β is reported as 624.72 ± 14.38 pg/mL. For the same compound, in the test with splenic lymphocytes (polypeptide dose 0.05 μM), the “A570 nm/A630 nm” value stood at 0.5388 ± 0.0643 and the “Inhibition rate (%)” value is reported as 20.23%. Besides, in the test with splenic lymphocytes (polypeptide dose 0.1 μM), the “A570 nm/A630 nm” value is recorded as 0.5231 ± 0.0967 and the “Inhibition rate (%)” value is recorded as 22.55%. In the test with splenic lymphocytes (polypeptide dose 0.2 μM), the “A570 nm/A630 nm” value worked out at 0.4792 ± 0.0849 and the “Inhibition rate (%)” value stood at 29.08%. In test [3] (2.0 mg/kg once a day for 3 d), the “Swelling degree 1 h” value worked out at 0.27 ± 0.13 mg, the “Swelling degree 3 h” value is listed as 0.33 ± 0.14 mg, the “Swelling degree 5 h” value came out at 0.39 ± 0.17 mg and the “Swelling degree 7 h” value turned out to be 0.36 ± 0.16 mg. Also, in test [3] (4.0 mg/kg once a day for 3 d), the “Swelling degree 1 h” value was found to be 0.24 ± 0.12 mg, the “Swelling degree 3 h” value came out at 0.33 ± 0.16 mg, the “Swelling degree 5 h” value amounted to 0.32 ± 0.17 mg and the “Swelling degree 7 h” value amounted to 0.34 ± 0.14 mg. For the same compound, in the test with adjuvant arthritis, the Clinical score was determined as 5.63 ± 1.12; the Joint swelling degree is 0.74 ± 0.17 mm; the “Left and right paw swelling degree” value stood at 3.86 ± 0.85 mm.

As to `C[C@H](NC(=O)CNC(=O)[C@H](CCCNC(=N)N)NC(=O)CCCCCc1cccc(N2C(=O)C=CC2=O)c1)C(=O)N[C@@H](CC(=O)O)C(=O)N[C@@H](CCCNC(=N)N)C(=O)N[C@@H](C)C(=O)NCC(=O)NCC(=O)NCC(=O)NCC(=O)N[C@@H](CCCNC(=N)N)C(=O)NCC(=O)N[C@@H](CC(=O)O)C(=O)O` [X29] (X71-RGADRAGGGGRGD-OH), in test [1], the “Nuclei count (retinal vascular endothelial nuclei, average per section per eyeball)” value came to 9.533 ± 2.225. Also, in test [2] (dose 0.05 μM), the Inhibition rate came out at 16.20% and the IL-1β is on record as 788.74 ± 15.39 pg/mL. In test [2] (dose 0.1 μM), this compound returned an Inhibition rate of 21.75% and an IL-1β of 736.46 ± 14.72 pg/mL. In test [2] (dose 0.2 μM), this compound displayed an Inhibition rate of 40.73% and an IL-1β of 557.81 ± 12.11 pg/mL. Moreover, in the test with splenic lymphocytes (polypeptide dose 0.05 μM), the “A570 nm/A630 nm” value is recorded as 0.5595 ± 0.0932 and the “Inhibition rate (%)” value stood at 17.16%. In the test with splenic lymphocytes (polypeptide dose 0.1 μM), the “A570 nm/A630 nm” value was determined as 0.5284 ± 0.0661 and the “Inhibition rate (%)” value amounted to 21.76%. Moreover, in the test with splenic lymphocytes (polypeptide dose 0.2 μM), the “A570 nm/A630 nm” value amounted to 0.5094 ± 0.1191 and the “Inhibition rate (%)” value is on record as 24.58%. In test [3] (2.0 mg/kg once a day for 3 d), the “Swelling degree 1 h” value is given as 0.27 ± 0.16 mg, the “Swelling degree 3 h” value is 0.35 ± 0.18 mg, the “Swelling degree 5 h” value amounted to 0.36 ± 0.19 mg and the “Swelling degree 7 h” value was found to be 0.33 ± 0.17 mg. Also, in test [3] (4.0 mg/kg once a day for 3 d), the “Swelling degree 1 h” value worked out at 0.22 ± 0.12 mg, the “Swelling degree 3 h” value was found to be 0.34 ± 0.15 mg, the “Swelling degree 5 h” value is recorded as 0.35 ± 0.13 mg and the “Swelling degree 7 h” value is 0.32 ± 0.17 mg. Moreover, in the test on adjuvant arthritis, the Clinical score is 5.72 ± 1.06; the Joint swelling degree was determined as 0.84 ± 0.16 mm; the “Left and right paw swelling degree” value is 3.72 ± 0.80 mm.
